Experimental data from article PMC6491988, “Distinct Lipid Transfer Proteins display different IgE‐binding activities that are affected by fatty acid binding” (Allergy, 2018).

Legend:
[1] = molecular target: T1, rMal d 3 (Malus domestica, UniProt Q9M5X7); test: ANS displacement fluorescence; assay type: binding; conditions: 50 μmol/L ligand, protein:ligand 1:5
T1 construct: gene MALD3; recombinant, produced in Pichia pastoris, purified
T1 sequence (Q9M5X7 25-115): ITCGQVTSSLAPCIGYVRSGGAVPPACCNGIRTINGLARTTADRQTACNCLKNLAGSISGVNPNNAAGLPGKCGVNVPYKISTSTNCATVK

[2] = molecular target: T2, rCor a 8 (Corylus avellana, UniProt Q9ATH2); test: ANS displacement fluorescence; assay type: binding; conditions: 50 μmol/L ligand, protein:ligand 1:5
T2 construct: recombinant, produced in Pichia pastoris, purified
T2 sequence (Q9ATH2 24-115): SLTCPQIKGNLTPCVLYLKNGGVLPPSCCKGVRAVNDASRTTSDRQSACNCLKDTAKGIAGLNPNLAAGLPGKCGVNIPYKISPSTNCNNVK

## CCCCCCCCCCCCCCCCCC(=O)O [STE, stearic acid]
[1]
  % reduction of ANS fluorescence at 50 μmol/L: 17%

## CCCCCCCC/C=C\CCCCCCCC(=O)O [OLE, oleic acid]
[2]
  % reduction of ANS fluorescence at 50 μmol/L: 23%
[1]
  % reduction of ANS fluorescence at 50 μmol/L: 59%
